From publication PMC12091851, “Replacing a Cereblon Ligand by a DDB1 and CUL4 Associated Factor 11 (DCAF11) Recruiter Converts a Selective Histone Deacetylase 6 PROTAC into a Pan‐Degrader” (Chemmedchem, 2025)

Target: HDAC1 (Homo sapiens, UniProt Q13547)
Assay: Immunoblot HDAC1 degradation in MM.1S cell lysates
Format: cell-based
Set-up: endogenous in cells; host or cells: MM.1S
Conditions: MM1.S, MM.1S cells, 24 h, read-out: maximal degradation (Dmax) HDAC1
Method: Figure 6 Examination of HDAC isoform degradation. MM.1S cells were treated with the indicated compounds (10 μM) or vehicle (DMSO) for 24 h. HDAC1, 2, 4, and 6 levels were analyzed by immunoblotting. (A) Representative images from a total of n=3 biological replicates.
2.5. Aqueous Stability Assay
For stability testing in aqueous solution, a 10-fold concentrated DMSO solution of the respective compounds was diluted in DPBS to generate a 10 µM concentration (final DMSO content of 10%).
Samples of the aqueous solutions were taken after 0, 24, 48, and 72 h at room temperature and the amounts of the parental compound and potential fragments were monitored by HPLC gradient A (see 3.1 General Information). […]
Afterwards, proteins were transferred with the Trans -Blot Turbo Transfer System (Catalog# 1704150, Bio-Rad) to Immobilon-FL PVDF membranes (Catalog# IPFL00005, Mill ipore Merck, Burlington, MA, USA) at 1.0 A for 30 min and treated with 5% milk-powder solution for 1 h at room temperature under slight agitation. […] The ChemiDoc XRS+ System (Catalog# 1708265 , Bio-Rad) was used for detection and Image Lab Software 6.1 (Bio-Rad) for quantification. […]
In vitro inhibitory activities against HDAC1, 2 , and 6 were measured using a previously published protocol.[3] In vitro inhibitory activities against HDAC4 were measured using a previously published protocol with slight modifications. […]

HDAC1, sequence (Q13547 whole entry): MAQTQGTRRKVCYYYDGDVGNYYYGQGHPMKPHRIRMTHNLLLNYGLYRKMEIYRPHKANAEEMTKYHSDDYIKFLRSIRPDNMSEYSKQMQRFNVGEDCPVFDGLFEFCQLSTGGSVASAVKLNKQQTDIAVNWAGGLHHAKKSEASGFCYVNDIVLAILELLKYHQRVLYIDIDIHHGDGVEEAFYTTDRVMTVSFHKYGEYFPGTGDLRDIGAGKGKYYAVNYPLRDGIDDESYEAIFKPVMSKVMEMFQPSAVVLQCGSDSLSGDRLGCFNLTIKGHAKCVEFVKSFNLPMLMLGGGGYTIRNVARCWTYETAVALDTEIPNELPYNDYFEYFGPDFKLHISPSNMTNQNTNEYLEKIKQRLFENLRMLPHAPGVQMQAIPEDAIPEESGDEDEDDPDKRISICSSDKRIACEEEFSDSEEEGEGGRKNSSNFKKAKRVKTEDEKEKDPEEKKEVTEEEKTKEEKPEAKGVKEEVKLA

Dmax at 10 µM | Compound
90% | O=C(CCCCCCNC(=O)c1ccc(NC(=O)CCCCCCCCCCCN(C(=O)CCl)C(C(=O)NCc2ccccc2)c2ccc(Cl)c(Cl)c2)cc1)NO (centres unmarked) [Compound 1j]
74% | O=C(CCCCCCNC(=O)c1ccc(N(C(=O)CCl)C(C(=O)NCc2ccccc2)c2ccc(Cl)c(Cl)c2)cc1)NO (centres unmarked) [Compound 2]
